Results: the supplement of paper PMC10307832

What was measured:
Assay in all cases: relative viability (nuclei count vs DMSO), 5 days (fraction); higher = more cells survive
HCC-44 = system: HCC-44
How it was run: (§1)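 Medians of duplicate plates are given as relative viability. That measure is the nuclei count in treated wells divided by the count in vehicle wells. Counts were taken on 4× images of lung cancer cell lines in 1536-well plates, 5 days after pin-tool dosing the day after seeding with one drug alone or a fixed anchor-drug dose plus five library-drug doses (not always all listed) in √10 steps.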

LCLC-97TM1 = system: LCLC-97TM1
How it was run: as §1

LCLC-103H = system: LCLC-103H
How it was run: as §1

NCI-H3122 = system: NCI-H3122
How it was run: as §1

NCI-H727 = system: NCI-H727
How it was run: as §1

NCI-H647 = system: NCI-H647
How it was run: as §1

RERF-LC-KJ = system: RERF-LC-KJ
How it was run: as §1

CAL-12T = system: CAL-12T
How it was run: as §1

NCI-H1650 = system: NCI-H1650
How it was run: as §1

SK-LU-1 = system: SK-LU-1
How it was run: as §1

NCI-H2228 = system: NCI-H2228
How it was run: as §1

NCI-H2405 = system: NCI-H2405
How it was run: as §1

BEN = system: BEN
How it was run: as §1

NCI-H1437 = system: NCI-H1437
How it was run: as §1

NCI-H2087 = system: NCI-H2087
How it was run: as §1

NCI-H1944 = system: NCI-H1944
How it was run: as §1

201T = system: 201T
How it was run: as §1

NCI-H1793 = system: NCI-H1793
How it was run: as §1

NCI-H1395 = system: NCI-H1395
How it was run: as §1

HOP-62 = system: HOP-62
How it was run: as §1

HCC-827 = system: HCC-827
How it was run: as §1

LXF-289 = system: LXF-289
How it was run: as §1

NCI-H322M = system: NCI-H322M
How it was run: as §1

Compound: NC(=O)Nc1cc(-c2cccc(F)c2)sc1C(=O)N[C@H]1CCCNC1 [AZD7762] + O=C(c1cc(Cc2n[nH]c(=O)c3ccccc23)ccc1F)N1CCN(C(=O)C2CC2)CC1 [Olaparib] (partner 8 µM)
- relative viability (HCC-44; first compound 0.01 µM): 0.986
- relative viability (HCC-44; first compound 0.03162 µM): 0.922
- relative viability (HCC-44; first compound 0.1 µM): 1.01
- relative viability (HCC-44; first compound 0.3162 µM): 0.964
- relative viability (HCC-44; first compound 1 µM): 0.954
- relative viability (LCLC-97TM1; first compound 0.01 µM): 0.493
- relative viability (LCLC-97TM1; first compound 0.03162 µM): 0.523
- relative viability (LCLC-97TM1; first compound 0.1 µM): 0.438
- relative viability (LCLC-97TM1; first compound 0.3162 µM): 0.552
- relative viability (LCLC-97TM1; first compound 1 µM): 0.198
- relative viability (LCLC-103H; first compound 0.01 µM): 0.827
- relative viability (LCLC-103H; first compound 0.03162 µM): 0.705
- relative viability (LCLC-103H; first compound 0.1 µM): 0.733
- relative viability (LCLC-103H; first compound 0.3162 µM): 0.772
- relative viability (LCLC-103H; first compound 1 µM): 0.714
- relative viability (NCI-H3122; first compound 0.01 µM): 0.681
- relative viability (NCI-H3122; first compound 0.03162 µM): 0.527
- relative viability (NCI-H3122; first compound 0.1 µM): 0.588
- relative viability (NCI-H3122; first compound 0.3162 µM): 0.477
- relative viability (NCI-H3122; first compound 1 µM): 0.404
- relative viability (NCI-H727; first compound 0.01 µM): 0.735
- relative viability (NCI-H727; first compound 0.03162 µM): 0.723
- relative viability (NCI-H727; first compound 0.1 µM): 0.931
- relative viability (NCI-H727; first compound 0.3162 µM): 0.717
- relative viability (NCI-H727; first compound 1 µM): 0.543
- relative viability (NCI-H647; first compound 0.01 µM): 0.612
- relative viability (NCI-H647; first compound 0.03162 µM): 0.494
- relative viability (NCI-H647; first compound 0.1 µM): 0.238
- relative viability (NCI-H647; first compound 0.3162 µM): 0.0816
- relative viability (NCI-H647; first compound 1 µM): 0.0532
- relative viability (RERF-LC-KJ; first compound 0.01 µM): 0.928
- relative viability (RERF-LC-KJ; first compound 0.03162 µM): 0.922
- relative viability (RERF-LC-KJ; first compound 0.1 µM): 1.01
- relative viability (RERF-LC-KJ; first compound 0.3162 µM): 0.893
- relative viability (RERF-LC-KJ; first compound 1 µM): 0.65
- relative viability (CAL-12T; first compound 0.01 µM): 0.908
- relative viability (CAL-12T; first compound 0.03162 µM): 0.756
- relative viability (CAL-12T; first compound 0.1 µM): 0.865
- relative viability (CAL-12T; first compound 0.3162 µM): 0.489
- relative viability (CAL-12T; first compound 1 µM): 0.2
- relative viability (NCI-H1650; first compound 0.01 µM): 0.787
- relative viability (NCI-H1650; first compound 0.03162 µM): 0.863
- relative viability (NCI-H1650; first compound 0.1 µM): 0.905
- relative viability (NCI-H1650; first compound 0.3162 µM): 0.658
- relative viability (NCI-H1650; first compound 1 µM): 0.23
- relative viability (SK-LU-1; first compound 0.01 µM): 0.477
- relative viability (SK-LU-1; first compound 0.03162 µM): 0.389
- relative viability (SK-LU-1; first compound 0.1 µM): 0.306
- relative viability (SK-LU-1; first compound 0.3162 µM): 0.244
- relative viability (SK-LU-1; first compound 1 µM): 0.186
- relative viability (NCI-H2228; first compound 0.01 µM): 0.659
- relative viability (NCI-H2228; first compound 0.03162 µM): 0.778
- relative viability (NCI-H2228; first compound 0.1 µM): 0.637
- relative viability (NCI-H2228; first compound 0.3162 µM): 0.311
- relative viability (NCI-H2228; first compound 1 µM): 0.193
- relative viability (NCI-H2405; first compound 0.01 µM): 0.889
- relative viability (NCI-H2405; first compound 0.03162 µM): 0.911
- relative viability (NCI-H2405; first compound 0.1 µM): 0.837
- relative viability (NCI-H2405; first compound 0.3162 µM): 0.816
- relative viability (NCI-H2405; first compound 1 µM): 0.294
- relative viability (BEN; first compound 0.01 µM): 1.05
- relative viability (BEN; first compound 0.03162 µM): 1.04
- relative viability (BEN; first compound 0.1 µM): 0.966
- relative viability (BEN; first compound 0.3162 µM): 1.01
- relative viability (BEN; first compound 1 µM): 0.658
- relative viability (NCI-H1437; first compound 0.01 µM): 0.696
- relative viability (NCI-H1437; first compound 0.03162 µM): 0.648
- relative viability (NCI-H1437; first compound 0.1 µM): 0.621
- relative viability (NCI-H1437; first compound 0.3162 µM): 0.612
- relative viability (NCI-H1437; first compound 1 µM): 0.433
- relative viability (NCI-H2087; first compound 0.01 µM): 0.712
- relative viability (NCI-H2087; first compound 0.03162 µM): 0.768
- relative viability (NCI-H2087; first compound 0.1 µM): 0.806
- relative viability (NCI-H2087; first compound 0.3162 µM): 0.858
- relative viability (NCI-H2087; first compound 1 µM): 0.583
- relative viability (NCI-H1944; first compound 0.01 µM): 0.46
- relative viability (NCI-H1944; first compound 0.03162 µM): 0.448
- relative viability (NCI-H1944; first compound 0.1 µM): 0.504
- relative viability (NCI-H1944; first compound 0.3162 µM): 0.532
- relative viability (NCI-H1944; first compound 1 µM): 0.446
- relative viability (201T; first compound 0.01 µM): 0.821
- relative viability (201T; first compound 0.03162 µM): 0.854
- relative viability (201T; first compound 0.1 µM): 0.885
- relative viability (201T; first compound 0.3162 µM): 0.566
- relative viability (201T; first compound 1 µM): 0.475
- relative viability (NCI-H1793; first compound 0.01 µM): 0.886
- relative viability (NCI-H1793; first compound 0.03162 µM): 0.909
- relative viability (NCI-H1793; first compound 0.1 µM): 0.917
- relative viability (NCI-H1793; first compound 0.3162 µM): 0.997
- relative viability (NCI-H1793; first compound 1 µM): 0.248
- relative viability (NCI-H1395; first compound 0.01 µM): 0.505
- relative viability (NCI-H1395; first compound 0.03162 µM): 0.415
- relative viability (NCI-H1395; first compound 0.1 µM): 0.393
- relative viability (NCI-H1395; first compound 0.3162 µM): 0.387
- relative viability (NCI-H1395; first compound 1 µM): 0.354
- relative viability (HOP-62; first compound 0.01 µM): 0.541
- relative viability (HOP-62; first compound 0.03162 µM): 0.239
- relative viability (HOP-62; first compound 0.1 µM): 0.313
- relative viability (HOP-62; first compound 0.3162 µM): 0.297
- relative viability (HOP-62; first compound 1 µM): 0.136
- relative viability (HCC-827; first compound 0.01 µM): 0.654
- relative viability (HCC-827; first compound 0.03162 µM): 0.678
- relative viability (HCC-827; first compound 0.1 µM): 0.64
- relative viability (HCC-827; first compound 0.3162 µM): 0.267
- relative viability (HCC-827; first compound 1 µM): 0.288
- relative viability (LXF-289; first compound 0.01 µM): 1.11
- relative viability (LXF-289; first compound 0.03162 µM): 1.18
- relative viability (LXF-289; first compound 0.1 µM): 1.21
- relative viability (LXF-289; first compound 0.3162 µM): 1.16
- relative viability (LXF-289; first compound 1 µM): 1.28
- relative viability (NCI-H322M; first compound 0.01 µM): 0.795
- relative viability (NCI-H322M; first compound 0.03162 µM): 0.933
- relative viability (NCI-H322M; first compound 0.1 µM): 0.85
- relative viability (NCI-H322M; first compound 0.3162 µM): 0.627
- relative viability (NCI-H322M; first compound 1 µM): 0.354
